Experiment: excess molar enthalpy (molar enthalpy of mixing); xn = mol fraction of the nth substance listed
Conditions: Fluid (supercritical or subcritical phases), Flow calorimetry

CC(C)OC(C)C [diisopropyl ether] + O=C=O
excess molar enthalpy [kcal/mol]
Conditions	298.15 K	303.15 K	308.15 K
5000 kPa, x2 = 0.1255	-0.279	-0.251	-0.293
5000 kPa, x2 = 0.2326	-0.527	-0.526	-0.53
5000 kPa, x2 = 0.3249	-0.734	-0.741	-0.745
5000 kPa, x2 = 0.4054	-0.913	-0.922	-0.924
5000 kPa, x2 = 0.4762	-1.07	-1.08	-1.09
5000 kPa, x2 = 0.5389	-1.2	-1.22	-1.22
5000 kPa, x2 = 0.5949	-1.33	-1.35	-1.34
5000 kPa, x2 = 0.6452	-1.45	-1.46	-1.45
5000 kPa, x2 = 0.6906	-1.55	-1.55	-1.55
5000 kPa, x2 = 0.7317	-1.62	-1.64	–
5000 kPa, x2 = 0.7692	-1.71	–	–
5000 kPa, x2 = 0.8036	-1.79	–	–
5000 kPa, x2 = 0.8351	-1.85	–	–
5500 kPa, x2 = 0.1263	-0.277	-0.278	-0.275
5500 kPa, x2 = 0.2338	-0.496	-0.505	-0.525
5500 kPa, x2 = 0.3265	-0.682	-0.715	-0.709
5500 kPa, x2 = 0.4071	-0.861	-0.881	-0.891
5500 kPa, x2 = 0.478	-0.991	-1.03	-1.04
5500 kPa, x2 = 0.5407	-1.13	-1.16	-1.18
5500 kPa, x2 = 0.5966	-1.25	-1.28	-1.29
5500 kPa, x2 = 0.6468	-1.34	-1.38	-1.4
5500 kPa, x2 = 0.6921	-1.45	-1.48	-1.49
5500 kPa, x2 = 0.7331	-1.52	-1.56	-1.57
5500 kPa, x2 = 0.7705	-1.61	-1.64	–
5500 kPa, x2 = 0.8047	-1.67	-1.69	–
5500 kPa, x2 = 0.8361	-1.74	–	–
5500 kPa, x2 = 0.865	-1.78	–	–
5500 kPa, x2 = 0.8918	-1.82	–	–
5500 kPa, x2 = 0.9019	-1.83	–	–
6000 kPa, x2 = 0.127	-0.232	-0.255	-0.277
6000 kPa, x2 = 0.235	-0.442	-0.479	-0.494
6000 kPa, x2 = 0.3279	-0.621	-0.675	-0.693
6000 kPa, x2 = 0.4087	-0.761	-0.839	-0.853
6000 kPa, x2 = 0.4796	-0.89	-0.973	-1.02
6000 kPa, x2 = 0.5423	-1.01	-1.09	-1.12
6000 kPa, x2 = 0.5982	-1.09	-1.21	-1.22
6000 kPa, x2 = 0.6483	-1.19	-1.32	-1.34
6000 kPa, x2 = 0.6934	-1.27	-1.4	-1.42
6000 kPa, x2 = 0.7344	-1.33	-1.48	-1.49
6000 kPa, x2 = 0.7716	-1.4	-1.54	-1.56
6000 kPa, x2 = 0.8057	-1.48	-1.6	-1.61
6000 kPa, x2 = 0.8248	–	–	-1.64
6000 kPa, x2 = 0.837	-1.52	-1.66	–
6000 kPa, x2 = 0.8658	-1.59	-1.7	–
6000 kPa, x2 = 0.8924	-1.63	-1.71	–
6000 kPa, x2 = 0.9171	-1.65	–	–
6000 kPa, x2 = 0.931	-1.63	–	–
6000 kPa, x2 = 0.94	-1.67	–	–
6000 kPa, x2 = 0.9614	-1.64	–	–
6000 kPa, x2 = 0.9813	-1.48	–	–
6500 kPa, x2 = 0.1277	–	–	-0.254
6500 kPa, x2 = 0.2361	–	–	-0.464
6500 kPa, x2 = 0.3292	–	–	-0.638
6500 kPa, x2 = 0.4101	–	–	-0.787
6500 kPa, x2 = 0.4811	–	–	-0.92
6500 kPa, x2 = 0.5438	–	–	-1.04
6500 kPa, x2 = 0.5996	–	–	-1.14
6500 kPa, x2 = 0.6496	–	–	-1.24
6500 kPa, x2 = 0.6947	–	–	-1.33
6500 kPa, x2 = 0.7355	–	–	-1.39
6500 kPa, x2 = 0.7727	–	–	-1.45
6500 kPa, x2 = 0.8066	–	–	-1.5
6500 kPa, x2 = 0.8378	–	–	-1.56
6500 kPa, x2 = 0.8665	–	–	-1.6
7000 kPa, x2 = 0.1283	–	–	-0.232
7000 kPa, x2 = 0.237	–	–	-0.421
7000 kPa, x2 = 0.3304	–	–	-0.587
7000 kPa, x2 = 0.4114	–	–	-0.728
7000 kPa, x2 = 0.4824	–	–	-0.857
7000 kPa, x2 = 0.5451	–	–	-0.95
7000 kPa, x2 = 0.6009	–	–	-1.05
7000 kPa, x2 = 0.6509	–	–	-1.13
7000 kPa, x2 = 0.6958	–	–	-1.21
7000 kPa, x2 = 0.7366	–	–	-1.26
7000 kPa, x2 = 0.7736	–	–	-1.33
7000 kPa, x2 = 0.8075	–	–	-1.38
7000 kPa, x2 = 0.8385	–	–	-1.42
7000 kPa, x2 = 0.8671	–	–	-1.44
7000 kPa, x2 = 0.8935	–	–	-1.46
7000 kPa, x2 = 0.9179	–	–	-1.47
7500 kPa, x2 = 0.1289	–	–	-0.2
7500 kPa, x2 = 0.238	–	–	-0.356
7500 kPa, x2 = 0.3315	–	–	-0.488
7500 kPa, x2 = 0.4127	–	–	-0.625
7500 kPa, x2 = 0.4837	–	–	-0.727
7500 kPa, x2 = 0.5464	–	–	-0.819
7500 kPa, x2 = 0.6021	–	–	-0.904
7500 kPa, x2 = 0.652	–	–	-0.973
7500 kPa, x2 = 0.6969	–	–	-1.04
7500 kPa, x2 = 0.7376	–	–	-1.1
7500 kPa, x2 = 0.7745	–	–	-1.15
7500 kPa, x2 = 0.8083	–	–	-1.19
7500 kPa, x2 = 0.8392	–	–	-1.24
7500 kPa, x2 = 0.8677	–	–	-1.25
7500 kPa, x2 = 0.894	–	–	-1.28
7500 kPa, x2 = 0.9183	–	–	-1.26
7500 kPa, x2 = 0.9409	–	–	-1.24
7500 kPa, x2 = 0.962	–	–	-1.17
